Assays:
HCV genotype 1b replicon = experiment: HCV replicon assay (Zluc luciferase reporter); type: cell-based; conditions: Hepatitis C virus, Zluc cells, 72 hours
Experimental: Huh-7-derived cell line (Zluc) that harbors an HCV genotype 1b replicon and a luciferase reporter gene was grown in Dulbecco's Modified Eagle Medium (DMEM) supplemented with 10% fetal bovine serum, 2 mM GlutaMAX, 1% MEM nonessential amino acids, 100 IU/mL penicillin, 100 μg/mL streptomycin, and 0.5 mg/mL Geneticin® (G418). For dose response testing the cells were seeded in 96-well plates at 7.5×10^3 cells per well in a volume of 50 μL, and incubated at 37° C./5% CO2. Drug solutions were made up freshly in Huh-7 media as 2× stocks. […] were prepared from these stocks in DMEM without G418. At least three hours after Zluc cells were seeded, drug treatment was initiated by adding 50 μL of drug dilutions to the plates in duplicate. Final concentrations of drug ranged from 100 μM to 0.0000512 μM. Cells were then incubated at 37° C./5% CO2. […] For this, media was removed from the plates via gentle tapping. Fifty microliters of ONE-glo luciferase assay reagent was added to each well. The plates were shaken gently for 3 min at room temperature and luminescence was measured on a Victor^3 V 1420 multilabel counter (Perkin Elmer) with a 1 second read time using a 700 nm cut-off filter. The EC50 values were calculated from dose response curves from the resulting best-fit equations determined by Microsoft Excel and XLfit 5.2 software. […]

[1] = Cytotoxicity evaluation, CellTiter-Blue Cell Viability Assay; type: cell-based; conditions: human, Zluc cells (Huh-7-derived cell line), read-out: HCV Replicon CC50
Experimental: For cytotoxicity evaluation, Zluc cells were treated with compound as described herein, and cell viability was monitored using the CellTiter-Blue Cell Viability Assay (Promega) by adding 20 μL of the assay solution to each well. The plates were then incubated at 37° C./5% CO2 for at least 3 hours. Fluorescence was detected in plates using excitation and emission wavelengths of 531 and 595 nm, respectively, in a Victor^3 V 1420 multilabel counter (Perkin Elmer) and CC50 values were determined using Microsoft Excel and XLfit 5.2 software.

[2] = Stability in human liver microsomes; type: in vitro ADME; conditions: human liver microsomes 1.0 mg/mL, 10 μM, NADPH, 60 min
Experimental: (§1) Stability of test compounds was determined in subcellular fractions (microsomes and S9) of human liver and intestine in duplicate for each matrix. Pooled liver and intestinal microsomal, intestinal and liver S9 proteins (1.0 mg/mL), suspended in incubation buffer (100 mM potassium phosphate, pH 7.4, 5 mM MgCl2, and 0.1 mM EDTA), were preincubated for 5 min at 37° C. with 10 μM of a test compound from a 10 mM stock solution in DMSO (final DMSO concentration was 0.1%); the reaction was initiated by the addition of NADPH (3 mM final concentration). At specific times (0 and 60 min), 0.1 mL samples were taken and the reaction terminated by the addition of 4 volumes of stop solution (acetonitrile with 500 ng/mL carbutamide as an internal standard). The samples were vortexed for 30 sec and then centrifuged at 16,000 g for 10 min. Aliquots of supernatants (100 μL each) were transferred to 96 deep-well plates preloaded with 100 μL distilled water and analyzed after mixing by LC-MS/MS. The MS peak area ratio of the test compound versus the internal standard was calculated and percent unchanged test compound over 60 minutes was calculated using this ratio.

[3] = Stability in human intestinal microsomes; type: in vitro ADME; conditions: human intestinal microsomes 1.0 mg/mL, 10 μM, NADPH, 60 min
Experimental: as §1

[4] = Plasma pharmacokinetics following a single oral dose in CD-1 mice; type: in vivo; conditions: CD-1 male mice, single oral dose 10 mg/kg for I or 25 mg/kg for II in PEG 200; plasma 2′-methyl-2′-fluorouridine; 4, 12, 24 hours
Experimental: Plasma samples were analyzed for 2′-methyl-2′-fluorouridine (2′-Me-2′-F-U) by LC-MS/MS. The internal standard (IS) was D3-2′-F-2′-Me-G. For protein precipitation and extraction, each plasma sample (50 μL) was treated with 500 μL of 0.2% formic acid in acetonitrile and 20 μL of the internal standard working solution. After vortexing and centrifugation, 500 μL of the sample extracts were transferred to a new plate, dried under N2 at ˜28° C. and reconstituted with 75 μL of 0.2% FA in water. The extracts were chromatographed on an Aquasil C18 column using a gradient system of 0.2% formic acid in water and acetonitrile. The analytes were detected and quantified by tandem mass spectrometry in positive ion mode on an MDS Sciex API5000 equipped with a Turbo Ionspray® interface. The calibration range was 0.500 (LLOQ) to 200 ng/mL in mouse plasma.

[5] = Liver pharmacokinetics (triphosphate) following a single oral dose in CD-1 mice; type: in vivo; conditions: CD-1 male mice, single oral dose 10 mg/kg for I or 25 mg/kg for II in PEG 200; liver 2′-methyl-2′-fluorouridine triphosphate; 4, 12, 24 hours
Experimental: Liver samples were analyzed for the active species 2′-methyl-2′-fluorouridine triphosphate (2′-Me-2′-F-U TP) by LC-MS/MS. […] Internal standard solution was added to the homogenate followed by neutralization with 20% ammonium hydroxide solution and addition of 500 μL 1% formic acid. The tissue samples were extracted by weak anion exchange solid phase extraction (SPE). Post extraction, the eluates were evaporated under nitrogen, followed by reconstitution before injection onto the LC-MS/MS system. […] The calibration range was 10 to 10000 pmol/mL in mouse liver homogenate (50 to 50000 pmol/g of mouse liver).

| SMILES | EC50 (HCV genotype 1b replicon) [µM] | CC50 [1] [µM] | Stability (expressed as percent remaining) HLM (1 hr) [2] | Stability (expressed as percent remaining) HIM (1 hr) [3] | Ms Plasma 2′-Me-2′-F-U AUC (pmol · hr/mL at 1 μmol/kg) [4] | Ms Liver 2′-Me-2′-F-U TP AUC (pmol · hr/g at 1 μmol/kg) [5] |
| --- | --- | --- | --- | --- | --- | --- |
| CC(C)OC(=O)[C@@H](C)N[P@@](=O)(OCC1O[C@@H](n2ccc(=O)[nH]c2=O)[C@](C)(F)[C@@H]1O)Oc1ccccc1 (single isomer, unassigned) [Compound (Ia)] | > 10 | > 50 | ++++ (60% < ++++ ≦ 80%) | +++++ (80% < +++++) | +++ (400 < +++ ≦ 1000) | +++++ (1600 < +++++) |
| CC(C)OC(=O)[C@@H](C)N[P@](=O)(OCC1O[C@@H](n2ccc(=O)[nH]c2=O)[C@](C)(F)[C@@H]1O)Oc1ccccc1 (single isomer, unassigned) [Compound (Ib), D-Alanine, N—((SP,2′R)-2′-deoxy-2′-fluoro-2′-methyl-P-phenyl-5′-uridylyl)-, 1-methylethyl ester] | > 10 | > 50 | +++++ (80% < +++++) | +++++ (80% < +++++) | ++ (100 < ++ ≦ 400) | +++ (400 < +++ ≦ 1000) |
